Assay results taken from ChEMBL document CHEMBL4312004, “From bench to counter: Discovery and validation of a peony extract as tyrosinase inhibiting cosmeceutical” (Eur J Med Chem, 2019).
The source made the active and inactive calls. The calls are words filed in the database; no cut-off is given here.

Columns and labels:
B16-F10 [1] = assay: Antimelanogenic activity against C57BL/6 mouse B16F10 cells incubated for 10 to 50 uM incubated for 24 hrs; assay type: functional
B16-F10 [2] = assay: Antimelanogenic activity against C57BL/6 mouse B16F10 cells at 10 uM incubated for 72 hrs relative to control; assay type: functional
B16-F10 [3] = assay: Antimelanogenic activity against C57BL/6 mouse B16F10 cells at 50 uM incubated for 72 hrs relative to control; assay type: functional
B16-F10 [4] = assay: Cytotoxicity against C57BL/6 mouse B16F10 cells assessed as reduction in cell viability incubated for 72 hrs by SRB assay relative to control; assay type: cell-based; conditions: b16-f10, 72 h
[5] = Drug degradation in IMDM cell medium incubated for 24 hrs by HPLC analysis; assay type: physicochemical; conditions: read-out: Drug degradation
[6] = Stability of compound in DMSO at 10 mM incubated for 24 hrs by HPLC analysis; assay type: physicochemical; conditions: 10000 µM
[7] = Stability of compound in IMDM cell medium incubated for 24 hrs by HPLC analysis; assay type: physicochemical
B16-F10 [8] = assay: Antimelanogenic activity against C57BL/6 mouse B16F10 cells incubated for 72 hrs; assay type: functional, cell-based
[9] = target: T1, Tyrosinase (Agaricus bisporus) (UniProt O42713); assay: Ratio of IC50 for arbutin to IC50 for test compound for inhibition of mushroom tyrosinase
T1 sequence (whole entry): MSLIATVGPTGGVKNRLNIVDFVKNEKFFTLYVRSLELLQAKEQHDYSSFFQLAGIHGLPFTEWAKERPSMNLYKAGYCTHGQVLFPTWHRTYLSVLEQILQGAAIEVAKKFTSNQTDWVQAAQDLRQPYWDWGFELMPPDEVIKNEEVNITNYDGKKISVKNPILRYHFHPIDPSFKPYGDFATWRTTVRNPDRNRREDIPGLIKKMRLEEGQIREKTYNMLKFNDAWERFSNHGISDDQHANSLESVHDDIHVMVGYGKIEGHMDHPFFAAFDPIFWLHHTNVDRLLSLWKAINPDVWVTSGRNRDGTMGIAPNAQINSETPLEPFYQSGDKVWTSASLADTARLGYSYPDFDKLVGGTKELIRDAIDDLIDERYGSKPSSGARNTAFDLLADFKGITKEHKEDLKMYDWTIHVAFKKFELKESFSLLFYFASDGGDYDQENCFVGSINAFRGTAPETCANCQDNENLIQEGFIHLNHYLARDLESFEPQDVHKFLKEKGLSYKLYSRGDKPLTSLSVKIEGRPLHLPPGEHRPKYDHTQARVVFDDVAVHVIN

Tyrosinase = target: T2, Tyrosinase (Agaricus bisporus, UniProt O42713); assay: Inhibition of mushroom tyrosinase using L-dopa as substrate preincubated for 10 mins followed by substrate addition and measured for 5 mins by photometric analysis
T2 sequence (O42713 whole entry): T1 sequence (whole entry)

B16-F10 [10] = assay: Cytotoxicity against C57BL/6 mouse B16F10 cells assessed as increase in membrane blebbing at 50 uM incubated for 48 hrs by microscopic method; assay type: cell-based; conditions: b16-f10, 48 h
B16-F10 [11] = assay: Cytotoxicity against C57BL/6 mouse B16F10 cells assessed as increase in cell shrinking at 50 uM incubated for 48 hrs by microscopic method; assay type: cell-based; conditions: b16-f10, 48 h

| degraded at 24 h [5] [%] | Stability [6] | Stability [7] | Ratio IC50 [9] | IC50 (Tyrosinase) [µM] | Compound | Activity (B16-F10 [1]) | Activity (B16-F10 [2]) [%] | Activity (B16-F10 [3]) [%] | Activity (B16-F10 [4]) | Activity (B16-F10 [8]) | Activity (B16-F10 [10]) | Activity (B16-F10 [11]) |
| --- | --- | --- | --- | --- | --- | --- | --- | --- | --- | --- | --- | --- |
|  |  |  |  |  | OC[C@H]1O[C@@H](Oc2ccc(O)cc2)[C@H](O)[C@@H](O)[C@@H]1O | inactive |  |  |  |  |  |  |
| 30 | Stable | Unstable | 73 | 19 | OC[C@H]1O[C@@H](Oc2ccc(/C=C/c3cc(O)cc(O)c3)cc2)[C@H](O)[C@@H](O)[C@@H]1O [GOB C] | 25% | 50 | 65 | Non-Toxic | Dose-dependent effect |  |  |
|  | Stable | Stable |  |  | OC[C@H]1O[C@@H](Oc2cc(O)cc(/C=C/c3ccc(O)cc3)c2)[C@H](O)[C@@H](O)[C@@H]1O [PICEID] | inactive |  |  |  |  |  |  |
|  | Stable | Stable |  |  | Oc1ccc(/C=C/c2cc(O)cc(O)c2)cc1 [RESVERATROL] | 25% | 50 | 65 | 70% | Dose-dependent effect | Toxic | Toxic |
